Patent publication US20070088019A1, “Macroheterocyclic compounds as kinase inhibitors” (priority 2005, published 2007)

Assays:
PKC isoform α = PKC isoform α (Homo sapiens, UniProt P17252); assay: Protein Kinase C histone-based assay, PKC alpha; assay type: biochemical; settings: histone substrate, 30 μM ATP, 10 min at 30° C.
Method: (§1) Protein Kinase C Histone-Based Assay
(§2) Compounds were evaluated for PKC selectivity using histone III as the substrate. The PKC isoforms α, β-II or γ were added to a reaction mixture containing 20 mM HEPES, (pH 7.4), […] CaCl2, 10 mM MgCl2, 1 mM EGTA. 100 μg/mL phosphatidylserine, 20 μg/mL diacylglycerol, 30 μM ATP, 1 μCi (^33P)ATP, and 200 μg/mL […]. The reaction was incubated for 10 min at 30° C. Reactions were terminated by TCA precipitation and spotting on Whatman P81 filters. Filters were washed in 75 mM phosphoric acid and the radioactivity quantified by liquid scintillation counting.

PKC Beta I = PKC Beta I (Homo sapiens, UniProt P05771); assay: Protein Kinase C histone-based assay, PKC beta I; assay type: biochemical; settings: histone substrate, 30 μM ATP, 10 min at 30° C.
Chain of PKC Beta I (P05771 whole entry, canonical isoform): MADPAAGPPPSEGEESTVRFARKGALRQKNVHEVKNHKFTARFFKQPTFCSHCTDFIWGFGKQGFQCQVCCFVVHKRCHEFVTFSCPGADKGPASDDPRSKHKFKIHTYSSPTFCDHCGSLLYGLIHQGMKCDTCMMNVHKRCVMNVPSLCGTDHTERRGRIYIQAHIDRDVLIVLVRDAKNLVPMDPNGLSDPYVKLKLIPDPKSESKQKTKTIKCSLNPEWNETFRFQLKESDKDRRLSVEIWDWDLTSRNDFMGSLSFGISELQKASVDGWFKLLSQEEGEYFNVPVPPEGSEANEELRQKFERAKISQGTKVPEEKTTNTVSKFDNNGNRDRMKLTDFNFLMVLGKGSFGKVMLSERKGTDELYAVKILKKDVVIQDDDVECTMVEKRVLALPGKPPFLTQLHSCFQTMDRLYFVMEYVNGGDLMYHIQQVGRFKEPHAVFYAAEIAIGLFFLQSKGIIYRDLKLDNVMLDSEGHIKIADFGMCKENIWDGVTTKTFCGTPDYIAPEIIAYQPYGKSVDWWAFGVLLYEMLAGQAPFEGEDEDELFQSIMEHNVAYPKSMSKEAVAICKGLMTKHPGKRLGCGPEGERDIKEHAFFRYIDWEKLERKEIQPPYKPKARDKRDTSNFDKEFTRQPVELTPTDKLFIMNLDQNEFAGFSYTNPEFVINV

PKC isoform β-II = PKC isoform β-II (Homo sapiens, UniProt P05771); assay: Protein Kinase C histone-based assay, PKC beta II; assay type: biochemical; settings: histone substrate, 30 μM ATP, 10 min at 30° C.
Chain of PKC isoform β-II (P05771 1-673 isoform P05771-2): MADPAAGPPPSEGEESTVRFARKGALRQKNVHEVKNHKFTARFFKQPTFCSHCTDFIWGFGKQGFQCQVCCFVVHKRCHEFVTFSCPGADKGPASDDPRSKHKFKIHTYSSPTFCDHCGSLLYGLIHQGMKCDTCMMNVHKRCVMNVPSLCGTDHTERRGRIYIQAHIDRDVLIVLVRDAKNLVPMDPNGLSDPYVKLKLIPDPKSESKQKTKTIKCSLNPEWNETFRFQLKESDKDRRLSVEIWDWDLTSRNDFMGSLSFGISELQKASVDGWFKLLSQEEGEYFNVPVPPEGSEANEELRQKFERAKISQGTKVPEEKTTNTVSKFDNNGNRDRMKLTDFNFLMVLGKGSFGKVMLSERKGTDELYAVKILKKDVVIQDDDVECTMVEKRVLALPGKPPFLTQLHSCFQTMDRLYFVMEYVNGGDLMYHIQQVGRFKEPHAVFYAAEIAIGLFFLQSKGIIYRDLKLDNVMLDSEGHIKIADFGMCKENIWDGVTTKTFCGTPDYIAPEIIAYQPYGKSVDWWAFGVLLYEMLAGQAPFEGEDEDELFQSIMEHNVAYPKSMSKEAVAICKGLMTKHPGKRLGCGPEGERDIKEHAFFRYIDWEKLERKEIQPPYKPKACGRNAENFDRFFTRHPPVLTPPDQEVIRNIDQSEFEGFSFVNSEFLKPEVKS
Method: as §1, §2

PKC isoform γ = PKC isoform γ (Homo sapiens, UniProt P05129); assay: Protein Kinase C histone-based assay, PKC gamma; assay type: biochemical; settings: histone substrate, 30 μM ATP, 10 min at 30° C.
Method: as §1, §2

[1] = target: T1, recombinant rabbit GSK-3β protein (Oryctolagus cuniculus, UniProt G1T8E2); assay: Glycogen Synthase Kinase-3 assay; assay type: biochemical; settings: PPI-2 substrate, 33P-ATP, 90 minutes at 30° C.
T1 construct: purchased New England Biolabs
T1 sequence (G1T8E2 1-432): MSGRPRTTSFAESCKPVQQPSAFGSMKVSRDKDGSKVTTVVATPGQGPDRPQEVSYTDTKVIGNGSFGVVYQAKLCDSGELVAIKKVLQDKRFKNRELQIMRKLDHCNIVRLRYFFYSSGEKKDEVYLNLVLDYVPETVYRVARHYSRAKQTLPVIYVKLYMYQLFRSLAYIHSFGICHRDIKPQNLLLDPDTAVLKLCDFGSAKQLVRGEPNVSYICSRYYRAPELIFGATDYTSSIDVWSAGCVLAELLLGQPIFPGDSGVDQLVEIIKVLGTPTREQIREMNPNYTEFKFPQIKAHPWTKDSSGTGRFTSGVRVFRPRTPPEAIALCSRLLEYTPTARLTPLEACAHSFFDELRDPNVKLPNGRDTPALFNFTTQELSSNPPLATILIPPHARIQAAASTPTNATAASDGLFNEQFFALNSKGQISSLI
Method: Glycogen Synthase Kinase-3 Assay
Compounds were tested for the ability to inhibit recombinant rabbit GSK-3β protein using the following protocol. The test compound was added to a reaction mixture containing Protein phosphatase inhibitor-2 (PPI-2) (Calbiochem) (45 ng), rabbit GSK-3β protein (New England Biolabs) (0.75 units) and ^33P-ATP (1 μCi) in 50 mM Tris-HCl (pH 8.0), 10 mM MgCl2, 0.1% BSA, 1 mM DTT and 100 μM Sodium Vanadate. The mixture was reacted for 90 minutes at 30° C. to allow phosphorylation of the PPI-2 protein and then the protein in the reaction was precipitated using 10% TCA. The precipitated protein was collected on filter plates (MultiScreen-DV/Millipore), which were subsequently washed. Finally, the radioactivity was quantified using a TopCount Scintillation Counter (Packard). […] Staurosporine or Valproate, known inhibitors of GSK-3β, were used as a positive control for screening.

[2] = test system: retinal neovascularization; assay: Murine retinopathy in-vivo model (oxygen-induced retinopathy); set-up: species or system mouse; settings: 60 mg/kg
Text: Murine Retinopathy In-Vivo Model
The methods used in this model are known to those skilled in the art and are referenced in the scientific literature, such as Smith, L. E., Wesolowski, E., McLellan, A., Kostyk, S. K., D'Amato, R., Sullivan, R., and D'Amore, P. A. “Oxygen-induced retinopathy in the mouse”. Invest. Ophthalmol. Vis. Sci., 1994, January; 35(1): 101-11.

Structure (SMILES) | IC50 (PKC isoform α) [nM] | IC50 (PKC Beta I) [nM] | IC50 (PKC isoform β-II) [nM] | IC50 (PKC isoform γ) [nM] | IC50 [1] [nM] | retinal neovascularization [2]
CN1CCOCCNCCn2cc(c3ccccc32)C2=C(C(=O)NC2=O)c2cn(c3ccccc23)CC1 [Compound 4, 18-methyl-10,11,12,13,14,16,17,18,19,20-decahydro-15-oxa-2,9,12,18,21-pentaaza-1H-diindolo[1,2,3-m,n:3′,2′,1′-r,s]cyclononadec-14,16,18-trien[16,17-c]-pyrrole-2,5-dione] | 280 | 6 | 8 | 1200 | – | –
O=C1NC(=O)C2=C1c1cn(c3ccccc13)CCNCCSCCNCCn1cc2c2ccccc21 [Compound 1, 10,11,12,13,14,16,17,18,19,20-decahydro-15-thio-2,9,12,18,21-pentaaza-1H-diindolo[1,2,3-m,n:3′,2′,1′-r,s]cyclononadec-14,16,18-trien[16,17-c]-pyrrole-2,5-dione] | 160 | 9 | 6 | 360 | 5 | –
CN1CCOCCN(C)CCn2cc(c3ccccc32)C2=C(C(=O)NC2=O)c2cn(c3ccccc23)CC1 [Compound 2, 12,18-dimethyl-10,11,12,13,14,16,17,18,19,20-decahydro-15-oxa-2,9,12,18,21-pentaaza-1H-diindolo[1,2,3-m,n:3′,2′,1′-r,s]cyclononadec-14,16,18-trien[16,17-c]-pyrrole-2,5-dione] | 490 | 27 | 41 | 1560 | 6 | –
O=C1NC(=O)C2=C1c1cn(c3ccccc13)CCNCCOCCNCCn1cc2c2ccccc21 [Compound 3, 10,11,12,13,14,16,17,18,19,20-decahydro-15-oxa-2,9,12,18,21-pentaaza-1H-diindolo[1,2,3-m,n:3′,2′,1′-r,s]cyclononadec-14,16,18-trien[16,17-c]-pyrrole-2,5-dione] | 330 | 9 | 13 | 5840 | 7 | inhibited retinal neovascularization
